{"source": "patent US20240351988A1", "about": "“ARYL HYDROCARBON RECEPTOR MODULATORS AND THEIR USE IN THE TREATMENT OF DISEASES AND DISORDERS” (Allianthera (Suzhou) Biopharmaceutical Co., Ltd., priority 2021, published 2024)", "note": "pIC50: −log10 of the molar value. Several values for one entry are separate records, joined by “and”; a condition that tells them apart may be missing. Equal entries are not always repeated.", "data": [{"biological_target": "T1, Human Aryl Hydrocarbon Receptor (AhR) (Homo sapiens, UniProt P35869)", "T1 construct": "purchased INDIGO Bioscience #1B06001-32; host or cells: AhR Reporter Cell (kit's proprietary reporter cells)", "T1 sequence (P35869 11-848)": "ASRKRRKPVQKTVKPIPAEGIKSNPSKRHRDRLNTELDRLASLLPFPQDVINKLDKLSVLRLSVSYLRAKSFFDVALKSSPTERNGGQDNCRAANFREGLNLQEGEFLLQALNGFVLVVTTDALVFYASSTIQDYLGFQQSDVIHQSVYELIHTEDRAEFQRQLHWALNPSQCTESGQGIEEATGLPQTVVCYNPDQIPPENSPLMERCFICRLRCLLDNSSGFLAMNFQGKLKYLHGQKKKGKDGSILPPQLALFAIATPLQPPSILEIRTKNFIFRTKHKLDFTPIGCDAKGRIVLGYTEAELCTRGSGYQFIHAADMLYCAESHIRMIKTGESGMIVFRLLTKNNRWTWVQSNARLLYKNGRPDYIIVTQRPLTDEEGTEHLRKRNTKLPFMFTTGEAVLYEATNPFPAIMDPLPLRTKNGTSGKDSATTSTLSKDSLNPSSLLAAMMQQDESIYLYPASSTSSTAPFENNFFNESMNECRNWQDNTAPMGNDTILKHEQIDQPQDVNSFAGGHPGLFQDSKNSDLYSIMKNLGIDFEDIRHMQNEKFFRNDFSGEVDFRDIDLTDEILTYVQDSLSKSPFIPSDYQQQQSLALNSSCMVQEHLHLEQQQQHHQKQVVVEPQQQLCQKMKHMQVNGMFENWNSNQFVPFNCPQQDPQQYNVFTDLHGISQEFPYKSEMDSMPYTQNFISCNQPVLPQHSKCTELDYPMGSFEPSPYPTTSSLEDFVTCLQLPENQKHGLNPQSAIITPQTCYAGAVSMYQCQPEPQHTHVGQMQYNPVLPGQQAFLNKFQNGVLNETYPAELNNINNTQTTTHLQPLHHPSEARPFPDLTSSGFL", "test": "AHR antagonist reporter assay in human cell line (INDIGO AhR Reporter Assay System, kynurenic acid activated)", "format": "cell-based", "conditions": "200 μM kynurenic acid, 24 hours, luciferase; read-out: AhR Reporter Assay KA Antagonist Mode: IC50", "experimental": "The AhR reporter assay was performed following the protocol of the Human Aryl Hydrocarbon Receptor (AhR) Reporter Assay System (INDIGO Bioscience, #1B06001-32). AhR Reporter Cell was thawed and pre-incubated in Cell Recovery Medium (CRM) for 6 hours. The media was then removed and the cells were incubated with Compound Screening Medium (CSM) supplemented with 200 μM kynurenic acid for 24 hours in the absence (negative control) or presence of increasing concentrations of test compounds (typical dilution: […], 3.2 nM, 16 nM, 80 nM, 400 nM, 2 μM, 10 μM in duplicates). For positive inhibition control, cells activated with 200 μM kynurenic acid were incubated in the presence of literature AHR antagonists; alternatively un-activated cells were used as positive inhibition control. Following 24 hours incubation, the media was removed and Luciferase Detection Reagent (LDR) added. The firefly luciferase activity was quantified using a plate reader. Results were normalized by positive and negative controls.", "values": [{"smiles": "CN(C)C(=O)CNC(=O)c1cc(-c2ccc(Cl)cc2)nn(-c2cccc(F)c2)c1=O", "note": "[Compound 2]", "pIC50": "6.40 to 7.00"}, {"smiles": "CC(=O)N(C)CC(C)NC(=O)c1cc(-c2ccc(Cl)cc2)nn(-c2cccc(F)c2)c1=O", "note": "(stereo not shown) [Compound 3]", "pIC50": "< 6.40"}, {"smiles": "NC(=O)c1cc(-c2ccc(Cl)cc2)nn(-c2cccc(F)c2)c1=O", "note": "[Compound 4]", "pIC50": "< 6.40"}, {"smiles": "O=C(NC1CNC1)c1cc(-c2ccc(Cl)cc2)nn(-c2cccc(F)c2)c1=O", "note": "[Compound 5]", "pIC50": "< 6.40"}, {"smiles": "COCCNC(=O)c1cc(-c2ccc(Cl)cc2)nn(-c2cccc(F)c2)c1=O", "note": "[Compound 6]", "pIC50": "< 6.40"}, {"smiles": "COCC(C)NC(=O)c1cc(-c2ccc(Cl)cc2)nn(-c2cccc(F)c2)c1=O", "note": "(stereo not shown) [Compound 7]", "pIC50": "> 7.00"}, {"smiles": "NC(=O)CNC(=O)c1cc(-c2ccc(Cl)cc2)nn(-c2cccc(F)c2)c1=O", "note": "[Compound 8]", "pIC50": "< 6.40"}, {"smiles": "CNC(=O)CNC(=O)c1cc(-c2ccc(Cl)cc2)nn(-c2cccc(F)c2)c1=O", "note": "[Compound 9]", "pIC50": "< 6.40"}, {"smiles": "CC(NC(=O)c1cc(-c2ccc(Cl)cc2)nn(-c2cccc(F)c2)c1=O)C(=O)O", "note": "(stereo not shown) [Compound 10]", "pIC50": "< 6.40"}, {"smiles": "CC(NC(=O)c1cc(-c2ccc(Cl)cc2)nn(-c2cccc(F)c2)c1=O)C(N)=O", "note": "(stereo not shown) [Compound 11]", "pIC50": "< 6.40"}, {"smiles": "CC(CN)NC(=O)c1cc(-c2ccc(Cl)cc2)nn(-c2cccc(F)c2)c1=O", "note": "(stereo not shown) [Compound 14]", "pIC50": "< 6.40"}, {"smiles": "CNCC(C)NC(=O)c1cc(-c2ccc(Cl)cc2)nn(-c2cccc(F)c2)c1=O", "note": "(stereo not shown) [Compound 15]", "pIC50": "< 6.40"}, {"smiles": "CC(CN(C)C)NC(=O)c1cc(-c2ccc(Cl)cc2)nn(-c2cccc(F)c2)c1=O", "note": "(stereo not shown) [Compound 16]", "pIC50": "< 6.40"}, {"smiles": "NCCNC(=O)c1cc(-c2ccc(Cl)cc2)nn(-c2cccc(F)c2)c1=O", "note": "[Compound 17]", "pIC50": "< 6.40"}, {"smiles": "CNCCNC(=O)c1cc(-c2ccc(Cl)cc2)nn(-c2cccc(F)c2)c1=O", "note": "[Compound 18]", "pIC50": "< 6.40"}, {"smiles": "CN(C)CCNC(=O)c1cc(-c2ccc(Cl)cc2)nn(-c2cccc(F)c2)c1=O", "note": "[Compound 19]", "pIC50": "< 6.40"}, {"smiles": "CC(=O)N(C)CCNC(=O)c1cc(-c2ccc(Cl)cc2)nn(-c2cccc(F)c2)c1=O", "note": "[Compound 20]", "pIC50": "< 6.40"}, {"smiles": "CNC(=O)c1cc(-c2ccc(Cl)cc2)nn(-c2cccc(F)c2)c1=O", "note": "[Compound 21]", "pIC50": "< 6.40"}, {"smiles": "CN(CCO)C(=O)c1cc(-c2ccc(Cl)cc2)nn(-c2cccc(F)c2)c1=O", "note": "[Compound 22]", "pIC50": "< 6.40"}, {"smiles": "CN(CCN)C(=O)c1cc(-c2ccc(Cl)cc2)nn(-c2cccc(F)c2)c1=O", "note": "[Compound 23]", "pIC50": "< 6.40"}, {"smiles": "O=C(NC1COC1)c1cc(-c2ccc(Cl)cc2)nn(-c2cccc(F)c2)c1=O", "note": "[Compound 24]", "pIC50": "< 6.40"}, {"smiles": "O=C(NC1CCCCNC1=O)c1cc(-c2ccc(Cl)cc2)nn(-c2cccc(F)c2)c1=O", "note": "(stereo not shown) [Compound 28]", "pIC50": "> 7.00"}, {"smiles": "CC(=O)N1CC(NC(=O)c2cc(-c3ccc(Cl)cc3)nn(-c3cccc(F)c3)c2=O)C1", "note": "[Compound 30]", "pIC50": "< 6.40"}, {"smiles": "Cn1cc(-n2nc(-c3ccc(Cl)cc3)cc(C(=O)NCC(=O)O)c2=O)cn1", "note": "[Compound 33]", "pIC50": "< 6.40"}, {"smiles": "Cn1cc(-n2nc(-c3ccc(Cl)cc3)cc(C(=O)NCC(N)=O)c2=O)cn1", "note": "[Compound 34]", "pIC50": "< 6.40"}, {"smiles": "CNC(=O)CNC(=O)c1cc(-c2ccc(Cl)cc2)nn(-c2cnn(C)c2)c1=O", "note": "[Compound 35]", "pIC50": "< 6.40"}, {"smiles": "CN(C)C(=O)CNC(=O)c1cc(-c2ccc(Cl)cc2)nn(-c2cnn(C)c2)c1=O", "note": "[Compound 36]", "pIC50": "< 6.40"}, {"smiles": "CC(NC(=O)c1cc(-c2ccc(Cl)cc2)nn(-c2cnn(C)c2)c1=O)C(=O)O", "note": "(stereo not shown) [Compound 37]", "pIC50": "< 6.40"}, {"smiles": "CNCCNC(=O)c1cc(-c2ccc(Cl)cc2)nn(-c2cnn(C)c2)c1=O", "note": "[Compound 46]", "pIC50": "< 6.40"}, {"smiles": "CN(C)CCNC(=O)c1cc(-c2ccc(Cl)cc2)nn(-c2cnn(C)c2)c1=O", "note": "[Compound 47]", "pIC50": "< 6.40"}, {"smiles": "COC[C@H](C)NC(=O)c1cc(-c2ccc(S(C)(=O)=O)cc2)nn(-c2cnn(C)c2)c1=O", "note": "[Compound 66]", "pIC50": "< 6.40"}, {"smiles": "COC[C@H](C)NC(=O)c1cc(-c2ccc(C)cn2)nn(-c2cnn(C)c2)c1=O", "note": "[Compound 67]", "pIC50": "< 6.40 and > 7.00"}, {"smiles": "COC[C@H](C)NC(=O)c1cc(-c2ccc(C)cc2)nn(-c2cnn(C)c2)c1=O", "note": "[Compound 68]", "pIC50": "6.40 to 7.00"}, {"smiles": "COC[C@H](C)NC(=O)c1cc(-c2ccc(OC(F)(F)F)cc2)nn(-c2cnn(C)c2)c1=O", "note": "[Compound 69]", "pIC50": "> 7.00"}, {"smiles": "COC[C@H](C)NC(=O)c1cc(-c2ccc(OC)cc2)nn(-c2cnn(C)c2)c1=O", "note": "[Compound 74]", "pIC50": "6.40 to 7.00"}, {"smiles": "COC[C@H](C)NC(=O)c1cc(-c2ccc(N(C)C)nc2)nn(-c2cnn(C)c2)c1=O", "note": "[Compound 75]", "pIC50": "< 6.40"}, {"smiles": "COC[C@H](C)NC(=O)c1cc(-c2cnc(C3CC3)s2)nn(-c2cnn(C)c2)c1=O", "note": "[Compound 77]", "pIC50": "< 6.40"}, {"smiles": "COC[C@H](C)NC(=O)c1cc(-c2cnc(C)s2)nn(-c2cnn(C)c2)c1=O", "note": "[Compound 79]", "pIC50": "< 6.40"}, {"smiles": "COC[C@H](C)NC(=O)c1cc(-c2cnc(C(F)(F)F)s2)nn(-c2cnn(C)c2)c1=O", "note": "[Compound 80]", "pIC50": "< 6.40"}, {"smiles": "COC[C@H](C)NC(=O)c1cc(-c2ccc(C#N)cc2)nn(-c2cnn(C)c2)c1=O", "note": "[Compound 83]", "pIC50": "< 6.40"}, {"smiles": "COC[C@H](C)NC(=O)c1cc(-c2ccc(Cl)cc2F)nn(-c2cnn(C)c2)c1=O", "note": "[Compound 85]", "pIC50": "< 6.40"}, {"smiles": "COC[C@H](C)NC(=O)c1cc(-c2cnc(C(C)=O)s2)nn(-c2cnn(C)c2)c1=O", "note": "[Compound 87]", "pIC50": "< 6.40"}, {"smiles": "COC[C@H](C)NC(=O)c1cc(-c2cnc(C(C)C)s2)nn(-c2cnn(C)c2)c1=O", "note": "[Compound 88]", "pIC50": "> 7.00"}, {"smiles": "COC[C@H](C)NC(=O)c1cc(-c2cnc(N(C)C)nc2)nn(-c2cnn(C)c2)c1=O", "note": "[Compound 89]", "pIC50": "6.40 to 7.00"}, {"smiles": "COC[C@H](C)NC(=O)c1cc(-c2cnc(N)nc2)nn(-c2cnn(C)c2)c1=O", "note": "[Compound 91]", "pIC50": "< 6.40"}, {"smiles": "CNC(=O)C(C)(C)NC(=O)c1cc(-c2ccc(Cl)cc2)nn(-c2cccc(F)c2)c1=O", "note": "[Compound 96]", "pIC50": "> 7.00"}, {"smiles": "COC[C@H](C)NC(=O)c1cc(-c2ccc(F)c(Cl)c2)nn(-c2cnn(C)c2)c1=O", "note": "[Compound 102]", "pIC50": "< 6.40"}, {"smiles": "COC[C@H](C)NC(=O)c1cc(-c2ccc(F)c(F)c2)nn(-c2cnn(C)c2)c1=O", "note": "[Compound 103]", "pIC50": "< 6.40"}, {"smiles": "COC[C@H](C)NC(=O)c1cc(-c2cccc(Cl)c2)nn(-c2cnn(C)c2)c1=O", "note": "[Compound 104]", "pIC50": "> 7.00"}, {"smiles": "COC[C@H](C)NC(=O)c1cc(-c2cccc(F)c2)nn(-c2cnn(C)c2)c1=O", "note": "[Compound 105]", "pIC50": "< 6.40"}, {"smiles": "COC[C@H](C)NC(=O)c1cc(-c2ccc(F)cc2Cl)nn(-c2cnn(C)c2)c1=O", "note": "[Compound 107]", "pIC50": "< 6.40"}, {"smiles": "COC[C@H](C)NC(=O)c1cc(-c2ccccc2F)nn(-c2cnn(C)c2)c1=O", "note": "[Compound 108]", "pIC50": "< 6.40"}, {"smiles": "COC[C@H](C)NC(=O)c1cc(-c2ccc(F)cc2F)nn(-c2cnn(C)c2)c1=O", "note": "[Compound 109]", "pIC50": "< 6.40"}, {"smiles": "COC[C@H](C)NC(=O)c1cc(N2CC3(CCCC3)C2)nn(-c2cnn(C)c2)c1=O", "note": "[Compound 110]", "pIC50": "< 6.40"}, {"smiles": "COC[C@H](C)NC(=O)c1cc(-c2ccc3c(c2)CCCO3)nn(-c2cnn(C)c2)c1=O", "note": "[Compound 111]", "pIC50": "< 6.40"}, {"smiles": "COC[C@H](C)NC(=O)c1cc(N2CCC(C)CC2)nn(-c2cnn(C)c2)c1=O", "note": "[Compound 114]", "pIC50": "< 6.40"}, {"smiles": "COC[C@H](C)NC(=O)c1cc(C2CCCCC2)nn(-c2cnn(C)c2)c1=O", "note": "[Compound 115]", "pIC50": "< 6.40"}, {"smiles": "COC[C@H](C)NC(=O)c1cc(N2CCC3(CCCC3)CC2)nn(-c2cnn(C)c2)c1=O", "note": "[Compound 116]", "pIC50": "< 6.40"}]}]}
